Test results taken from PubChem BioAssay AID681 (The Scripps Research Institute Molecular Screening Center, 2007).

Molecular target: Nuclear receptor ROR-alpha (Homo sapiens) (UniProt P35398)
Assay: activators of RORA nuclear receptor, dose response, cell-based, CHO-K1, Gal4-RORA LBD, luciferase luminescence (AID 681)
Details: CHO-K1 Gal4-RORA LBD luciferase reporter

Sequence of Nuclear receptor ROR-alpha (Homo sapiens) (P35398 whole entry, looked up, the tested form may be a part): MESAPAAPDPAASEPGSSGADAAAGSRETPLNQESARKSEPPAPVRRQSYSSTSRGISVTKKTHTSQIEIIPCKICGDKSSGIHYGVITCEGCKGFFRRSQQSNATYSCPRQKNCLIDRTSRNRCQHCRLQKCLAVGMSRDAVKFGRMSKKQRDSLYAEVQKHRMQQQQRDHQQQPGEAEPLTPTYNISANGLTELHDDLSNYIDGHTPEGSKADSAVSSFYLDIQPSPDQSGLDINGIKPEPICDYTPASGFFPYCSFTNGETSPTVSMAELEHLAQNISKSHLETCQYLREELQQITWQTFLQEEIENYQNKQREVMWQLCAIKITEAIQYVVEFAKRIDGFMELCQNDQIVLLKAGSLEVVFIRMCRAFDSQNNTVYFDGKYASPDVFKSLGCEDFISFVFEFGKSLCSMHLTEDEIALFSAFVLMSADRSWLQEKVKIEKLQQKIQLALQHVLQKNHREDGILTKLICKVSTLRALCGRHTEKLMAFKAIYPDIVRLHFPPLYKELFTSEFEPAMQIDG

| Structure (SMILES) | EC50 [µM] |
| --- | --- |
| CCOc1ccc(/C=C\C(C)=N\O)cc1 | 0.491 |
| C=CCOc1ccc(/C=C/C(C)=N\O)cc1 | 1.35 |
| O=C1COc2ccc(OCc3ccc(F)cc3)cc21 | 3.63 |
